Where two headings read alike, the source gives them in different places.
Key:
[1] = test system: osteoclast cell; test: Change in the number of osteoclast cell in osteoporotic rats induced by ovariectomy; format: in vivo, rat; details: for osteoclast cells inducing the osteolysis (in words): osteoporotic rats induced by ovariectomy, group administered the drug; for number of osteoclast cell, Tibia Left / number of osteoclast cell, Tibia Right / number of osteoclast cell, femur Left / number of osteoclast cell, femur Right: ovariectomized rats, cells within 1 mm^2 area, 10 sections, mean±SD, PEG 100 solution, intramuscular injection, 40 days; for number of osteoclast cell, femur Right: same concentration as formula 2 (100 mg per kg)
Protocol: (§1) To investigate therapeutic value of the osteoporosis to ovariectomized rats, change in the number of osteoclast cell and area ratio of trabecular bone (volume %) were measured.
(§2) After 25 female white rats purchased from Chales River (Japan) were adjusted to a new environment, temperature of 20˜25° C. and relative humidity of 30˜35%. The 5 rats were positioned in a hutch, feed (Sam Yang corporation) and water were supplied to the rats. 20 rats had the operation for the removal of an ovary, 5 rats had the Sham operation for opening and suturing the abdominal cavity, used as Sham control group.
(§3) Also, to compare drug efficacies of EXAMPLE and the compound of formula 2, 5 rats removed of the ovary were used as experimental group. The compound of formula 2 was dissolved in injectable distilled water and administered to the rats orally in an amount of 100 mg per kg for 40 days from 10 weeks after ovariectomy or Sham-operation, using oral sonde. 5 ml/kg was administered to the rats. […] 5 ml/kg was administered to the rats.
(§4) After administration terminated, the femur and tibia were removed from the animals, and fixed in 10% neutral formalin. The fixed tissue was decalcified in a solution (solution mixed 24.4% formic acid and 0.5 N sodium hydroxide) for 5 days, embedded in paraffin and 3˜4 μm sections were prepared. After that prepared section were dyed by hematoxylin-eosin.
Change in the number of osteoclast cell was calculated by mean±standard deviation through the number of the osteoclast cell existed within 1 mm^2 area at the 10 sections. The experiment group administered was compared with the control group not and Sham group.

[2] = Pharmacokinetics test in rats (oral; plasma concentration of the compound of formula 2 by HPLC); format: in vivo, rat
Protocol: Male white rats (Sprague-Dawley) having body weights of 230˜260 g were used, 3˜4 rats were tested for a drug. Rats were fasted for 18˜20 hours before the drug was administered. The weight of rat was measured on the day of the experiment, the drug was administered orally to the rats according to dosage. After administration, rats were lightly anesthetized with diethyl ether. At […], 0.17, 0.5, 1.0, 1.5, 3.0, 5.0, 8.0 hours, the blood was collected from orbit vein of the rats by canulation. The collected blood was centrifuged, and the plasma was isolated. To determine concentration of the drug in plasma, HPLC was carried out as follows. Acetonitrile containing internal standard substance and the isolated plasma was mixed in the same amount, followed by centrifuging at 12,000 rpm. The supernatent was applied to HPLC, bioavailability of the compounds prepared in EXAMPLES was measured by analyzing a plasma concentration of the compound of formula 2.
Pharmacokinetics parameters were measured by noncompartmental analysis, using WinNolin (ver. 1.0 Scientific Consulting Inc., USA). Time and maximum plasma concentration were registered by observed data, half life was calculated by linear regression analysis of terminal elimination phase.

[3] = test system: osteoporotic rat induced by ovariectomy; test: Area ratio of trabecular bone in osteoporotic rats induced by ovariectomy; format: in vivo; details: for area ratio of trabecular bone, Femur Left / area ratio of trabecular bone, Tibia Left / area ratio of trabecular bone, Tibia Right / area ratio of trabecular bone, Femur Right: ovariectomized rats, 40 days
Protocol: as §1, §2, §3, §4
Also, the area ratio of trabecular bone was calculated at the section of the femur and tibia respectively, through the equation.

[4] = male Sprague-Dawley rats, 50 mg/kg, vehicle DW (distilled water)
[5] = male Sprague-Dawley rats, 50 mg/kg, vehicle DW (distilled water), analyte compound of formula 2 in plasma
[6] = male Sprague-Dawley rats, 100 mg/kg, vehicle DW (distilled water)
[7] = osteoporotic rats induced by ovariectomy
[8] = PEG 100 solution, intramuscular injection
[9] = injectable distilled water, oral, 100 mg per kg

{5-[4-(4-diisopropylcarbamoyl-2-methoxy-phenoxy)-butoxy]-benzo[d]isoxazole-3-ylcarbamoyl}-methyl-ammonium methane sulfonic acid salt [Example 1]
osteoclast cells inducing the osteolysis (in words) [1]: significantly decreased
number of osteoclast cell, Tibia Left [1]: 5.40 ± 2.76*.^##
number of osteoclast cell, Tibia Right [1]: 5.30 ± 2.00*.^#
number of osteoclast cell, femur Left [1]: 5.10 ± 2.38*.^#
number of osteoclast cell, femur Right [1]: 4.90 ± 1.52*.^#
Tmax [2, 4]: 30 min
Total AUC [2, 4]: 5720 ng·h/mL
Cmax [2, 5]: 1530 ng/mL
Cmax [2, 6]: 1510 ng/mL
Tmax [2, 6]: 30 min
Total AUC [2, 6]: 11080 ng·h/mL

COc1cc(C(=O)N(C(C)C)C(C)C)ccc1OCCCCOc1ccc2onc(NC(=O)[C@H](C)N)c2c1.CS(=O)(=O)O [Example 2, (1S)-1-{5-[4-(4-diisopropylcarbamoyl-2-methoxy-phenoxy)-butoxy]-benzo[d]isoxazole-3-ylcarbamoyl)-ethyl-ammonium methane sulfonic acid salt]
osteoclast cells inducing the osteolysis (in words) [1]: significantly decreased
number of osteoclast cell, Tibia Left [1]: 4.50 ± 1.60*.^#
number of osteoclast cell, Tibia Right [1]: 5.63 ± 1.30*.^#
number of osteoclast cell, femur Left [1]: 4.50 ± 1.69*.^#
number of osteoclast cell, femur Right [1]: 5.00 ± 1.51*.^##
area ratio of trabecular bone compared to the control group (in words) [3, 7]: excellently increased
therapeutic value (area ratio of the trabecular bone) compared with the compound of formula 2 (in words) [3, 7]: more distinguished therapeutic value than the compound of formula 2
area ratio of trabecular bone, Femur Left [3, 8]: 41.95 ± 8.78 volume %
area ratio of trabecular bone, Tibia Left [3, 8]: 40.12 ± 7.20**.^# volume %
area ratio of trabecular bone, Tibia Right [3, 8]: 35.58 ± 9.55*.^## volume %
area ratio of trabecular bone, Femur Right ([3]; PEG 100 solution, intramuscular injection, same concentration as formula 2 (100 mg per kg)): 33.93 ± 3.71*.^## volume %

COc1cc(C(=O)N(C(C)C)C(C)C)ccc1OCCCCOc1ccc2c(N)noc2c1 [Formula 2, reference compound]
area ratio of trabecular bone, Femur Left [3, 9]: 31.38 ± 7.88*.^## volume %
area ratio of trabecular bone, Femur Right [3, 9]: 31.69 ± 9.83 volume %
area ratio of trabecular bone, Tibia Left [3, 9]: 28.22 ± 5.54 volume %
area ratio of trabecular bone, Tibia Right [3, 9]: 29.35 ± 11.37 volume %
Total AUC ([2]; male Sprague-Dawley rats, 50 mg/kg, vehicle DMSO): 190 ng·h/mL
Cmax ([2]; male, Sprague-Dawley, rat, plasma, po, 50 mg/kg, male Sprague-Dawley rats, 50 mg/kg, vehicle DMSO, read-out: Cmax): 470 ng/mL
Tmax ([2]; male, Sprague-Dawley, rat, plasma, po, 50 mg/kg, male Sprague-Dawley rats, 50 mg/kg, vehicle DMSO, read-out: Tmax): 10.2 min
Cmax ([2]; male, Sprague-Dawley, rat, plasma, po, 50 mg/kg, male Sprague-Dawley rats, 50 mg/kg, vehicle DW + T (distilled water + tween 80), read-out: Cmax): 80 ng/mL
Tmax ([2]; male, Sprague-Dawley, rat, plasma, po, 50 mg/kg, male Sprague-Dawley rats, 50 mg/kg, vehicle DW + T (distilled water + tween 80), read-out: Tmax): 90 min
drug absorption (in words) ([2]; rat, 50 mg per kg, dissolved in distilled water and tween 80): no drug was absorbed
half-life ([2]; rat, plasma, male Sprague-Dawley rats, 50 mg/kg, vehicle DMSO): 19.2 min

COc1cc(C(=O)N(C(C)C)C(C)C)ccc1OCCCCOc1ccc2onc(NC(=O)[C@@H](N)C(C)C)c2c1.CS(=O)(=O)O [Example 4, (1S)-1-{5-[4-(4-diisopropylcarbamoyl-2-methoxy-phenoxy)-butoxy]-benzo[d-]isoxazole-3-ylcarbamoyl)-2-methyl-propyl-ammonium methane sulfonic acid salt]
T1/2 [2, 4]: 66.6 min
Tmax [2, 4]: 30 min
Total AUC [2, 4]: 2450 ng·h/mL
Cmax [2, 5]: 980 ng/mL
